Measurements as given in US20230190740A1, “AN NK-1 RECEPTOR ANTAGONIST FOR TREATING A DISEASE SELECTING FROM SEPSIS, SEPTIC SHOCK, ACUTE RESPIRATORY DISTRESS SYNDROME (ARDS) OR MULTIPLE ORGAN D[…] (MODS)” (NeRRe Therapeutics Limited, priority 2020, published 2023).

Key:
[1] = system: pulmonary inflammation induced by intranasal lipopolysaccharide (LPS) challenge; assay: LPS induced neutrophilia model of lung inflammation and injury (mouse model of ARDS): inflammatory cell counts in BALF; format: in vivo, female C57BL6J mice; set-up: key to WBC cell counts, 4 hr Statistical significance / Neutrophils cell counts, 4 hr Statistical significance: * p < 0.05; ** p < 0.01; *** p < 0.001; **** p < 0.0001.; not significant (NS)
Experimental: (§1) Orvepitant was evaluated in the established mouse model of ARDS; the LPS induced neutrophilia model of lung inflammation and injury.
(§2) The effects of vehicle control or orvepitant (250 mg/kg of orvepitant maleate anhydrous crystalline form [Form 1]), dosed orally 1 hour prior to challenge, on pulmonary inflammation induced by a single intranasal challenge dose (10 ug/kg) of either proinflammatory lipopolysaccharide (LPS), or phosphate-buffered saline (PBS) control, was investigated in female C57BL6J mice. Animals were euthanised at either 4 or 24 hours, and inflammatory cell counts and mediators were assayed in bronchoalveolar lavage (BALF) from all animals.
(§3) Key: Bronchoalveolar lavage fluid (BALF); intranasal (in); lipopolysaccharide (LPS); number of female C57BL6J mice/group (n); per os (po); phosphate buffered saline (PBS).

[2] = system: proinflammatory mediators in BALF after intranasal lipopolysaccharide (LPS) challenge; assay: LPS induced neutrophilia model of lung inflammation and injury (mouse model of ARDS): proinflammatory mediators in BALF; format: in vivo, female C57BL6J mice; set-up: key to IL-1β, 4 hr Statistical significance / TNFα, 24 hr Statistical significance / VEGF-A, 4 hr Statistical significance / MCP-1, 4 hr Statistical significance: * p < 0.05; ** p < 0.01; *** p < 0.001; **** p < 0.0001.; not significant (NS)
Experimental: as §1, §2, §3

[3] = 250 mg/kg per os 1 hour prior to LPS intranasal challenge, BALF at 4 hr, vs vehicle/LPS group
[4] = 250 mg/kg per os 1 hour prior to LPS intranasal challenge, BALF at 24 hr, vs vehicle/LPS group
[5] = 250 mg/kg per os, BALF at 4 hr after LPS intranasal challenge, vs vehicle/LPS group
[6] = 250 mg/kg per os, BALF at 24 hr after LPS intranasal challenge, vs vehicle/LPS group

## Cc1cc(F)ccc1[C@H]1C[C@@H](N2CCN3C(=O)CC[C@H]3C2)CCN1C(=O)N(C)[C@H](C)c1cc(C(F)(F)F)cc(C(F)(F)F)c1 [orvepitant, 2-(R)-(4-Fluoro-2-methyl-phenyl)-4-(S)-((8aS)-6-oxo-hexahydro-pyrrolo[1,2-a]-pyrazin-2-yl)-piperidine-1-carboxylic acid [1-(R)-(3,5-bis-trifluoromethyl-phenyl)-ethyl]-methylamide]
[1]; 250 mg/kg orally, ARDS LPS induced neutrophilia model
  effect on inflammatory cell migration: ameliorated
[1]; [3]
  Neutrophils cell counts, 4 hr Statistical significance: NS
  WBC cell counts, 4 hr Statistical significance: NS
[1]; [4]
  Neutrophils cell counts, 24 hr Statistical significance: *** (*** p < 0.001)
  WBC cell counts, 24 hr Statistical significance: *** (*** p < 0.001)
[2]; 250 mg/kg orally, at both 4 and 24 hours, vs vehicle treated LPS-challenged animals
  effect on range of proinflammatory mediators measured in the BALF: reduced
[2]; [5]
  IL17A, 4 hr % mean reduction: (36%)
  IL17A, 4 hr Statistical significance: **** (**** p < 0.0001.)
  IL-1β, 4 hr Statistical significance: NS
  IL-6, 4 hr % mean reduction: (44%)
  IL-6, 4 hr Statistical significance: ** (** p < 0.01)
  MCP-1, 4 hr Statistical significance: NS
  TNFα, 4 hr % mean reduction: (26%)
  TNFα, 4 hr Statistical significance: * (* p < 0.05)
  VEGF-A, 4 hr Statistical significance: NS
[2]; [6]
  IL17A, 24 hr % mean reduction: (47%)
  IL17A, 24 hr Statistical significance: * (* p < 0.05)
  IL-1β, 24 hr % mean reduction: (33%)
  IL-6, 24 hr % mean reduction: (39%)
  MCP-1, 24 hr % mean reduction: (56%)
  MCP-1, 24 hr Statistical significance: ** (** p < 0.01)
  TGF-β1, 24 hr % mean reduction: (62%)
  TGF-β1, 24 hr Statistical significance: *** (*** p < 0.001)
  TNFα, 24 hr Statistical significance: NS
  VEGF-A, 24 hr % mean reduction: (32%)
